# Reference: PubChem BioAssay AID1648 (Sanford-Burnham Center for Chemical Genomics, 2009)
# Activity calls are given as the source filed them. No rule for the calls is given here.
# Target: Serine/threonine-protein kinase mTOR (Homo sapiens) (UniProt P42345)
# Test: mTOR FRB domain ligand binding – biophysical, NMR (AID 1648)
# Conditions: NMR binding to FRB domain, chemical shift
# Serine/threonine-protein kinase mTOR (Homo sapiens), sequence (P42345 2015-2114): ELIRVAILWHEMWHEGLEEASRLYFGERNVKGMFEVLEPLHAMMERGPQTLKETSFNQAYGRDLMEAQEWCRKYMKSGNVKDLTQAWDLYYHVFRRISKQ
row,SMILES,Kd
1,COc1ncccc1N,> 4 mM (inactive)
2,C=C(C)C1(O)OC(=O)C=C1OC (stereo unspecified),> 4 mM (inactive)
3,CC(C)(C)NC(=O)CN1C(=O)c2ccccc2S1(=O)=O,> 4 mM (inactive)
4,COC1=CC(=O)C(O)=C/C1=C\C=C\c1ccccc1,> 4 mM (inactive)
5,O=C(CS(=O)(=O)c1ccccc1)N1CCCCCC1,> 4 mM (inactive)
6,CCC(CO)NC(=O)c1snnc1C (stereo unspecified),> 4 mM (inactive)
7,CS(C)=C1C(=O)NC(=O)N(c2ccccc2)C1=O,> 4 mM (inactive)
8,Nc1csc(C(=O)O)c1,> 4 mM (inactive)
9,COc1ccccc1-c1c(C)nn2c(C)c(C(C)=O)cnc12,> 4 mM (inactive)
10,COc1ccc(C(N)=O)cc1N,> 4 mM (inactive)
11,Cn1[nH]c(C(F)(F)F)cc1=O,> 4 mM (inactive)
12,CCN(CC)S(=O)(=O)c1cccc2nsnc12,> 4 mM (inactive)
13,OCCNc1ccccn1,> 4 mM (inactive)
14,CC(=O)O[C@@H]1CC2C(C)(C)[C@@H](O)CC[C@]2(C)C2CC[C@@]3(C)[C@H](c4ccoc4)OC(=O)[C@H]4O[C@]43[C@@]21C (stereo partly specified),> 4 mM (inactive)
15,Cc1onc(-c2ccccc2)c1C(=O)Nc1ccncc1,> 4 mM (inactive)
16,Cc1c(C(=O)Nn2cnnc2)oc2ccccc12,> 4 mM (inactive)
17,O=C1NC(=O)C(Cc2cccs2)C(=O)N1,> 4 mM (inactive)
18,O=C1C2C3C=CC(C3)C2C(=O)N1CCO (stereo unspecified),> 4 mM (inactive)
19,O=C1Nc2ccc(S(=O)(=O)NCCO)c3cccc1c23,> 4 mM (inactive)
20,CNC(=O)CC1Sc2ccccc2NC1=O (stereo unspecified),> 4 mM (inactive)
21,COC[C@]12CN(C=O)C3[C@@H]4[C@H](OC)C1[C@]3(C1CC3(O)C(OC)C(O)C4(OC(C)=O)C1C3OC(=O)c1ccccc1)[C@@H](OC)C[C@H]2O (stereo partly specified),> 4 mM (inactive)
22,CNC[C@@H](O)c1ccc(O)c(O)c1,> 4 mM (inactive)
23,CN1C(=O)c2ccc(N=C3NC(=O)CS3)cc2C1=O,> 4 mM (inactive)
24,O=C(NCc1ccccc1)c1cnsn1,> 4 mM (inactive)
25,O=c1/c(=C/c2ccccc2F)sc2ncnn12,> 4 mM (inactive)

row,SMILES,Kd
1,COc1cc([C@@H]2c3cc4c(c(O)c3C[C@H]3COC(=O)[C@@H]32)OCO4)cc(OC)c1OC,> 4 mM (inactive)
2,CC(C)=CC(=O)Nc1ccccc1Br,> 4 mM (inactive)
3,CC(=O)Nc1ccc(-c2nc(C)c(C(C)=O)n2O)cc1,> 4 mM (inactive)
4,Cc1c(C)n2c(SCC(N)=O)nnc2[nH]c1=O,> 4 mM (inactive)
5,Nc1nnc(C(F)(F)F)s1,> 4 mM (inactive)
6,Cc1[nH]c2ccccc2c1C(=O)CSc1ncn[nH]1,> 4 mM (inactive)
7,O=C1NC(=S)N/C1=C\c1ccccc1F,> 4 mM (inactive)
8,Cn1cnc2c(=S)[nH]c(=O)n(Cc3ccccc3)c21,> 4 mM (inactive)
9,CNC(=O)c1cccc(NC(=S)NC)c1,> 4 mM (inactive)
10,O=C(NCCCO)c1ccncc1,> 4 mM (inactive)
11,OCc1ccc(-n2ccnc2)cc1,> 4 mM (inactive)
12,COC(=O)c1cn(C(=O)OC)c2ccccc12,> 4 mM (inactive)
13,CCOc1ccc(N2C(=O)CCC2=O)cc1,> 4 mM (inactive)
14,NC(=O)C1CC2C=CC1C2 (stereo unspecified),> 4 mM (inactive)
15,O=C(O)c1ccc2nccnc2c1,> 4 mM (inactive)
16,Cn1c([O-])c([N+](C)(C)C)c(=O)n(C)c1=O,> 4 mM (inactive)
17,CN(C)c1ccc(N2C(=O)CCC2=O)cc1,> 4 mM (inactive)
18,NC(=O)c1ccc(NC(=O)c2ccco2)cc1,> 4 mM (inactive)
19,COc1cc2c(c(OC)c1OC)-c1ccc(O)c(=O)cc1[C@@H](NC(C)=O)CC2,> 4 mM (inactive)
20,Nc1cc(-c2ccco2)[nH]n1,> 4 mM (inactive)
21,Cc1ccccc1NC(=O)CC1SC(N)=NC1=O (stereo unspecified),> 4 mM (inactive)
22,CN1C2CC3C[C@H]1C(O3)C2O (stereo partly specified),> 4 mM (inactive)
23,Cc1nnc(NCc2cccnc2)[nH]c1=O,> 4 mM (inactive)
24,O=C(O)CSc1cccc2cccnc12,> 4 mM (inactive)
25,O=C1CNCc2[nH]c3ccccc3c2N1c1ccccc1,> 4 mM (inactive)

row,SMILES,Kd
1,O=C1CCC(=O)N1c1nc2ccccc2s1,> 4 mM (inactive)
2,S=C(Nc1ccccc1)Nc1nncs1,> 4 mM (inactive)
3,S=C(c1ccc(N2CCOCC2)cc1)N1CCOCC1,> 4 mM (inactive)
4,CN1CCN(Cc2cccnc2)CC1,> 4 mM (inactive)
5,CC(C)=CCOc1cc2oc(=O)ccc2cc1O,> 4 mM (inactive)
6,O=C(NC(=S)NC1CCS(=O)(=O)C1)c1ccccc1 (stereo unspecified),> 4 mM (inactive)
7,CC(=O)OC1CCC2(O)CC1(C)CCC1C2CC1(C)C (stereo unspecified),> 4 mM (inactive)
8,Cc1nc2ccccc2c(=O)n1CCCO,> 4 mM (inactive)
9,COCCn1c(N)nc2c1c(=O)[nH]c(=O)n2C,> 4 mM (inactive)
10,CNC(=O)C1CC(=O)N(c2ccc(O)cc2)C1 (stereo unspecified),> 4 mM (inactive)
11,Nc1nnc(SCc2cccnc2)s1,> 4 mM (inactive)
12,CC(=O)Oc1c(C)c(C)c2c(c1C)CCC(C)(CCCC(C)CCCC(C)CCCC(C)C)O2 (stereo unspecified),> 4 mM (inactive)
13,O=C(O)c1cccc(N2C(=O)C3CC=CCC3C2=O)c1 (stereo unspecified),> 4 mM (inactive)
14,C=CCCCCCCCCCCCC(O)CC(O)COC(C)=O (stereo unspecified),> 4 mM (inactive)
15,O=C(O)c1cncc(-c2cccs2)c1,> 4 mM (inactive)
16,O=C(O)C1Cc2ccccc2N1 (stereo unspecified),> 4 mM (inactive)
17,O=C1NC(=S)N/C1=C\c1ccccc1,> 4 mM (inactive)
18,O=C(O)c1cccc2c1OCCO2,> 4 mM (inactive)
19,Cc1occc1C(=O)NC1CCN(C)CC1,> 4 mM (inactive)
20,CC1(C)CC(=O)c2cnn(-c3nc4ccccc4[nH]3)c2C1,> 4 mM (inactive)
21,c1ccc(-c2nnc(CNCc3ccco3)o2)cc1,> 4 mM (inactive)
22,CCOC(=O)C1CN(C)CCN1C (stereo unspecified),> 4 mM (inactive)
23,C[C@@H]1O[C@@H](O[C@H]2[C@@H](Oc3cc(O)c4c(c3)O[C@H](c3ccc(O)cc3)CC4=O)O[C@H](CO)[C@@H](O)[C@@H]2O)[C@H](O)[C@H](O)[C@H]1O,> 4 mM (inactive)
24,CN1CCN(C(=O)C2CCCNC2)CC1 (stereo unspecified),> 4 mM (inactive)
25,O=C1C[C@@H](c2ccc(O)cc2)Oc2cc(O)cc(O)c21,> 4 mM (inactive)

row,SMILES,Kd
1,Cc1ccc(-c2nc(-c3cccnc3)no2)c(C)c1,> 4 mM (inactive)
2,C=Cc1c(C)c2cc3[nH]c(cc4nc(cc5nc(cc1[nH]2)C(C)=C5CCC(=O)O)C(CCC(=O)O)=C4C)c(C)c3C=C,> 4 mM (inactive)
3,CS/C(N)=C\C(C)=O,> 4 mM (inactive)
4,C/C=C1\[C@H]2C=C(C)C[C@]1(N)c1ccc(=O)[nH]c1C2,> 4 mM (inactive)
5,NC(=O)c1c(Cl)nsc1-c1ccccc1Cl,> 4 mM (inactive)
6,CSc1ccccc1NC(=O)c1c(C)noc1C,> 4 mM (inactive)
7,O=C(O)CN1C(=O)c2ccc(C(=O)O)cc2C1=O,> 4 mM (inactive)
8,O=C(CS(=O)(=O)c1ccccc1)Nc1nccs1,> 4 mM (inactive)
9,CC(=O)Nc1nnc(-c2ccccc2S(C)(=O)=O)o1,> 4 mM (inactive)
10,COc1ccc(O)c(-c2cn[nH]c2-c2cccs2)c1,> 4 mM (inactive)
11,CC1(C)O[C@H]2[C@H](O)C[C@](O)(C(N)=O)C[C@H]2O1,> 4 mM (inactive)
12,NC(CCC(=O)Nc1ccc([N+](=O)[O-])cc1)C(=O)O (stereo unspecified),> 4 mM (inactive)
13,COC(=O)c1c(C)cc(OC)cc1O,> 4 mM (inactive)
14,COc1ccc([C@@H](C)C(=O)c2ccc(O)cc2O)cc1,> 4 mM (inactive)
15,CN1C(=O)CC(=O)N(C)c2ccccc21,> 4 mM (inactive)
16,Cc1[nH]c(=O)[nH]c(=O)c1N1CCOCC1,> 4 mM (inactive)
17,Cc1nc2nc(Cc3ccccc3)[nH]n2c(=O)c1Cl,> 4 mM (inactive)
18,Nc1nc(-c2ccc(Cl)cc2)nn1C(=O)c1cccnc1,> 4 mM (inactive)
19,O=C(Nc1ccon1)c1ccc(Cl)s1,> 4 mM (inactive)
20,CC1(C)C(=O)N(O)C(C)(C)C(=O)N1O,> 4 mM (inactive)
21,Nc1ccc(CCC(=O)O)cc1,> 4 mM (inactive)
22,CCSc1nnc(-c2ccccc2N)c(=O)[nH]1,> 4 mM (inactive)
23,CC1=CC(=O)NC2C=CC=CC12 (stereo unspecified),> 4 mM (inactive)
24,COc1ccc(C[C@H]2NC[C@H](O)[C@H]2OC(C)=O)cc1,> 4 mM (inactive)
25,CC1(O)CC2C=CC1C2 (stereo unspecified),> 4 mM (inactive)

row,SMILES,Kd
1,O=C(O)CCCCCCCCCCCCC1C=CCC1 (stereo unspecified),> 4 mM (inactive)
2,N#Cc1cn(CC(=O)N2CCCC2)c2ccccc12,> 4 mM (inactive)
3,NC(=O)c1ccccc1N=Cc1ccco1,> 4 mM (inactive)
4,Cc1cccc(NC(=O)NC(N)=O)c1,> 4 mM (inactive)
5,O=C(O)C1CSC2(CCCCC2)N1 (stereo unspecified),> 4 mM (inactive)
6,Cc1ccc(CN2CCN(C(=O)C3CCC3)CC2)cc1,> 4 mM (inactive)
7,Cc1cc(C(=O)Nc2ccc3c(c2)OCCO3)c(C)o1,> 4 mM (inactive)
8,Cc1ccc(S(=O)(=O)CC(=O)N2CCCC2)cc1,> 4 mM (inactive)
9,S=C(NC1CC1)NN1CCOCC1,> 4 mM (inactive)
10,COC(=O)c1c(SC)nc(-c2ccccc2)[nH]c1=O,> 4 mM (inactive)
11,CCOC(=O)c1cc2ccccc2oc1=O,> 4 mM (inactive)
12,CC1(C)CC2(C)N(N)C(=O)CN2C(=S)N1 (stereo unspecified),> 4 mM (inactive)
13,O=C(O)c1ccc(CN2CCOCC2)cc1,> 4 mM (inactive)
14,O=C(C1CCC(C(=O)N2CCCC2)CC1)N1CCCC1 (stereo unspecified),> 4 mM (inactive)
15,O=S(=O)(NCc1ccco1)N1CCOCC1,> 4 mM (inactive)
16,Nc1cccc(NC(=O)c2cccs2)c1,> 4 mM (inactive)
17,O=C(O)c1cccnc1N1CCOCC1,> 4 mM (inactive)
18,Cc1nnc(NCc2ccc3c(c2)OCO3)[nH]c1=O,> 4 mM (inactive)
19,S=c1nc(Cc2ccccc2)[nH][nH]1,> 4 mM (inactive)
20,Cc1nnc(SCC(=O)Nc2ccccc2)[nH]c1=O,> 4 mM (inactive)
21,Cc1nnsc1C(=O)Nc1cccc(S(N)(=O)=O)c1,> 4 mM (inactive)
